PubChem BioAssay (NCI)
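Growth conditions: 96-well plates. Treatment: test compound, 48 hours, 5 concentrations. Analysis: linear interpolation between bracketing concentrations; unreached endpoints set to highest concentration. Here, GI50 denotes the concentration required for 50% inhibition of growth. At the TGI there is no net growth.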

Tests used:
Assay in all cases: growth of human tumour cells (NCI), 48 h
SNB-19 CNS = tested on: SNB-19 CNS
NCI-H522 lung = tested on: NCI-H522 lung
DU-145 prostate = tested on: DU-145 prostate
SF-539 CNS = tested on: SF-539 CNS
HOP-92 NSCLC = tested on: HOP-92 NSCLC
COLO 205 colon = tested on: COLO 205 colon
K-562 leukemia = tested on: K-562 leukemia
KM12 colon = tested on: KM12 colon
HL-60(TB) leukemia = tested on: HL-60(TB) leukemia
UACC-257 melanoma = tested on: UACC-257 melanoma
MOLT-4 leukemia = tested on: MOLT-4 leukemia
SNB-75 CNS = tested on: SNB-75 CNS
OVCAR-3 ovarian = tested on: OVCAR-3 ovarian
U251 CNS = tested on: U251 CNS
SR leukemia = tested on: SR leukemia
RPMI-8226 leukemia = tested on: RPMI-8226 leukemia
UO-31 renal = tested on: UO-31 renal
A549 NSCLC = tested on: A549 NSCLC
NCI-H23 lung = tested on: NCI-H23 lung
ACHN renal = tested on: ACHN renal
RXF 393 renal = tested on: RXF 393 renal
SK-MEL-2 melanoma = tested on: SK-MEL-2 melanoma
NCI-H460 lung = tested on: NCI-H460 lung
HS 578T breast = tested on: HS 578T breast
PC-3 prostate = tested on: PC-3 prostate
786-0 renal = tested on: 786-0 renal
OVCAR-5 ovarian = tested on: OVCAR-5 ovarian
SF-295 CNS = tested on: SF-295 CNS
MCF7 breast = tested on: MCF7 breast
MDA-MB-231 breast = tested on: MDA-MB-231 breast
SF-268 CNS = tested on: SF-268 CNS
TK-10 renal = tested on: TK-10 renal
CAKI-1 renal = tested on: CAKI-1 renal
T-47D breast = tested on: T-47D breast
HCC-2998 colon = tested on: HCC-2998 colon
NCI-H226 lung = tested on: NCI-H226 lung
LOX IMVI melanoma = tested on: LOX IMVI melanoma
EKVX NSCLC = tested on: EKVX NSCLC
HOP-62 NSCLC = tested on: HOP-62 NSCLC
A498 renal = tested on: A498 renal

## CCN(CC)S(=O)(=O)c1ccc(-c2nc(C(Cl)Cl)nc3cc(C)nn23)cc1
SNB-19 CNS
  GI50: 2.9 µM
  TGI: > 100 µM
NCI-H522 lung
  GI50: 4.55 µM
  TGI: > 100 µM
DU-145 prostate
  GI50: 1.7 µM
  TGI: 4.49 µM
SF-539 CNS
  GI50: 3.07 µM
  TGI: > 100 µM
HOP-92 NSCLC
  GI50: 1.9 µM
  TGI: 5.96 µM
COLO 205 colon
  GI50: 1.85 µM
  TGI: 4.17 µM
K-562 leukemia
  GI50: 2.94 µM
  TGI: > 100 µM
KM12 colon
  GI50: 1.89 µM
  TGI: 5.35 µM
HL-60(TB) leukemia
  GI50: 2.6 µM
  TGI: > 100 µM
UACC-257 melanoma
  GI50: 2.59 µM
  TGI: 8.66 µM
MOLT-4 leukemia
  GI50: 3.32 µM
  TGI: > 100 µM
SNB-75 CNS
  GI50: 6.91 µM
  TGI: > 100 µM
OVCAR-3 ovarian
  GI50: 1.85 µM
  TGI: 4.33 µM
U251 CNS
  GI50: 2.19 µM
  TGI: > 100 µM
SR leukemia
  GI50: 2.4 µM
  TGI: > 100 µM
RPMI-8226 leukemia
  GI50: 2.11 µM
  TGI: 5.72 µM
UO-31 renal
  GI50: 2.78 µM
  TGI: > 100 µM
A549 NSCLC
  GI50: 1.88 µM
  TGI: 4.6 µM
NCI-H23 lung
  GI50: 2.01 µM
  TGI: 4.96 µM
ACHN renal
  GI50: 1.87 µM
  TGI: 5.12 µM
RXF 393 renal
  GI50: 1.71 µM
  TGI: 5.17 µM
SK-MEL-2 melanoma
  GI50: > 100 µM
  TGI: > 100 µM
NCI-H460 lung
  GI50: 1.85 µM
  TGI: 4.47 µM
HS 578T breast
  GI50: 2.4 µM
  TGI: 7.08 µM
PC-3 prostate
  GI50: 2.16 µM
  TGI: 7.41 µM
786-0 renal
  GI50: > 100 µM
  TGI: > 100 µM
OVCAR-5 ovarian
  GI50: 3.07 µM
  TGI: > 100 µM
SF-295 CNS
  GI50: 2.13 µM
  TGI: 6.77 µM
MCF7 breast
  GI50: 2.84 µM
  TGI: > 100 µM
MDA-MB-231 breast
  GI50: 2.55 µM
  TGI: > 100 µM
SF-268 CNS
  GI50: 3.32 µM
  TGI: > 100 µM
TK-10 renal
  GI50: 3.03 µM
  TGI: > 100 µM
CAKI-1 renal
  GI50: 1.96 µM
  TGI: 5.57 µM
T-47D breast
  GI50: 4.03 µM
  TGI: > 100 µM
HCC-2998 colon
  GI50: 1.7 µM
  TGI: 3.47 µM
NCI-H226 lung
  GI50: 5.36 µM
  TGI: > 100 µM
LOX IMVI melanoma
  GI50: 6.32 µM
  TGI: > 100 µM
EKVX NSCLC
  GI50: 2.05 µM
  TGI: 5.35 µM
HOP-62 NSCLC
  GI50: 2.2 µM
  TGI: 7.4 µM
A498 renal
  GI50: 2.22 µM
  TGI: 9.24 µM
